From patent US20030027720A1, “Synergistic fungicidal composition comprising a compound analogous to strobilurin” (priority 1995, published 2003)

How the values were obtained:
Pyrenophora teres = assay: In vivo test, helminthosporium disease of barley, preventive treatment 7 days before infection (Colby); settings: graded 10 days after infection
Procedure: In vivo test of the combination of ICIA5504 with iprodione with respect to helminthosporium disease of barley by preventive treatment 7 days before infection.
The fungicides are used at the following doses:
The young barley plants (var. Express) which are 12 days old (first leaf developed stage) are treated with the experimental fungicides at the doses indicated above in a slurry volume of 250 l/ha (3 repeats/dose). Seven days after the treatment, the young barley plants are infected with a suspension of Pyrenophora teres spores (10,000 spores/ml). The young plants are incubated for 48 hours at 20° C., 100% relative humidity (RH). Next, the plants are transferred to a greenhouse at 20° C., 70-80% RH under natural light. The grading of the disease is carried out ten days after infection by estimating the leaf surface area contaminated on the first leaf (10 young plants/pot).
By comparing with the control (non-treated-contaminated) a percentage efficacy is calculated. The synergy is then quantified by using the Colby model.

Alternaria brassicae = assay: In vivo test, alternaria disease of radish, preventive treatment 24 hours before infection (Tammes isobole); settings: radish seedlings, spray 24 h before infection, reading 6 days after infection
Procedure: In vivo test of the combination of ICIA5504 with iprodione with respect to alternaria disease of radish (Alternaria brassicae) by preventive treatment 24 hours before infection. A suspension comprising the compounds A and B in a liquid mixture composed of a surface-active agent (oleate of polyoxyethylenated derivative of sorbitan) and water is prepared. The component B is iprodione; the A/B ratio is 0.25, 0.5, 1, 2 or 4. Radish seedlings (variety Pernot), are grown in small pots. When these seedlings are 10-12 days old (cotyledon, 1st leaf stage), they are treated by spraying with the above suspension. […] After 24 hours, each seedling is infected by spraying with an aqueous suspension of spores of Alternaria brassica, which suspension is obtained from an in vitro culture of the fungus. These spores are suspended at a concentration of 40,000 units per cm^3 of inoculum. Infection is carried out by spraying the inoculum at the top surface of the leaves. The infected seedlings are then incubated for six days at 18-20° C. at 90-100% relative humidity under natural light. Reading is carried out 6 days after infection, in comparison with the control seedlings. […]

SMILES | Observed efficacy (Pyrenophora teres; iprodione 12.5 g/ha alone) [%] | Observed efficacy (Pyrenophora teres; iprodione 25 g/ha alone) [%] | Observed efficacy (Pyrenophora teres; iprodione 50 g/ha alone) [%] | Observed efficacy (Pyrenophora teres; iprodione 100 g/ha alone) [%] | Observed efficacy (Pyrenophora teres; iprodione 200 g/ha alone) [%] | Observed efficacy (Pyrenophora teres; iprodione 400 g/ha alone) [%] | Observed efficacy (Pyrenophora teres; iprodione 800 g/ha alone) [%] | Observed efficacy (Pyrenophora teres; ICIA5504 1.5 g/ha alone) [%] | Observed efficacy (Pyrenophora teres; ICIA5504 3.1 g/ha alone) [%] | Observed efficacy (Pyrenophora teres; ICIA5504 6.2 g/ha alone) [%] | Observed efficacy (Pyrenophora teres; ICIA5504 12.5 g/ha alone) [%] | Observed efficacy (Pyrenophora teres; ICIA5504 25 g/ha alone) [%] | Observed efficacy (Pyrenophora teres; ICIA5504 50 g/ha alone) [%] | Observed efficacy (Pyrenophora teres; ICIA5504 100 g/ha alone) [%] | Observed efficacy (Pyrenophora teres; ICIA5504 200 g/ha alone) [%] | dose of A alone necessary for the destruction of 80% of the parasite (Alternaria brassicae)
CC(C)NC(=O)N1CC(=O)N(c2cc(Cl)cc(Cl)c2)C1=O [iprodione] | 15.79 | 7.02 | 37.72 | 35.09 | 47.37 | 50.88 | 59.65 | – | – | – | – | – | – | – | – | –
CO/C=C(/C(=O)OC)c1ccccc1Oc1cc(Oc2ccccc2C#N)ncn1 [ICIA5504, methyl (E)-2-{2-[6-(2-cyanophenoxy)pyrimidin-4-yloxy]phenyl}-3-methoxyacrylate] | – | – | – | – | – | – | – | 0 | 17.54 | 34.21 | 59.21 | 76.75 | 83.86 | 81.67 | 92.72 | 115 ppm (mg/l)
